Laboratory results taken from patent US20060069013A1, “Pharmaceutical preparations comprising acid-stabilised insulin” (Novo Nordisk A/S, priority 2003, published 2006).

Conditions: after subcutaneous injection of a soluble preparation; background statement; cited from earlier work

| Compound | absorption rates |
| --- | --- |
| Co^3+-hexamer: "absorption rates vary between about 1 hour (for rapid-acting insulin analogues ...) and about 4 hours (Co^3+-hexamer)" | about 4 hour |

Same assay, conditions: in vivo, sc; cited from earlier work

| Compound | absorption rates | absorption half-life |
| --- | --- | --- |
| Asp^B28 human insulin | about 1 hour | – |
| soluble human insulin hexamer: "inherent limitation of the absorption half-life to about 4 hours for a soluble human insulin hexamer" | – | about 4 hours |

Conditions: not given

| Compound | melting point [°C] |
| --- | --- |
| COc1cc(OCc2c(F)cccc2[N+](=O)[O-])cc(OC)c1/C=C1\SC(=O)NC1=O [Example 237, 5-[4-(2-Fluoro-6-nitrobenzyloxy)-2,6-dimethoxybenzylidene]thiazolidine-2,4-dione] | 255 to 256 |
| COc1cc(O)cc(OC)c1/C=C1\SC(=O)NC1=O [Example 234, 5-(4-Hydroxy-2,6-dimethoxybenzylidene)thiazolidine-2,4-dione] | 331 to 333 |
| O=C1NC(=O)/C(=C/c2cc3ccccc3[nH]c2=O)S1 [Example 242, 5-(2-Oxo-1,2-dihydroquinolin-3-ylmethylene)thiazolidine-2,4-dione] | 338 to 347 |
| c1cc(COc2ccc3ccccc3c2)cc(-c2nnn[nH]2)c1 [Example 572, 5-(3-(Naphthalen-2-yloxymethyl)-phenyl)-1H-tetrazole] | 200 to 202 |
| COc1cc(C=C2SC(=O)NC2=O)cc(I)c1O [Example 167, 5-(4-Hydroxy-3-iodo-5-methoxybenzylidene)thiazolidine-2,4-dione] | 256 |
| O=C1NC(=O)/C(=C/c2cc3ccccc3o2)S1 [Example 238, 5-Benzofuran-2-ylmethylenethiazolidine-2,4-dione] | 265 to 266 |
| CC(/C=C1\SC(=O)NC1=O)=C\c1ccccc1 [Example 240, 5-(2-Methyl-3-phenylallylidene)thiazolidine-2,4-dione] | 203 to 210 |

The next lines start with the values.

| melting point [°C] | Compound |
| --- | --- |
| 310 to 314 | O=C1NC(=O)/C(=C/c2ccc3cc(O)ccc3c2)S1 [Example 171, 5-(6-Hydroxy-2-naphthylmethylene) thiazolidine-2,4-dione] |
| 251 to 254 | O=C1NC(=O)/C(=C/C(Cl)=C/c2ccccc2)S1 [Example 241, 5-(2-Chloro-3-phenylallylidene)thiazolidine-2,4-dione] |
| 259 to 263 | CN(C)c1ccc(/C=C/C=C2\SC(=O)NC2=O)cc1 [Example 239, 5-[3-(4-Dimethylaminophenyl)allylidene]thiazolidine-2,4-dione] |
| 152 to 154 | O=C1NC(=O)/C(=C/c2c(Cl)cccc2Cl)S1 [Example 229, 5-(2,6-Dichlorobenzylidene)thiazolidine-2,4-dione] |
| 330 to 333 | O=C1NC(=O)/C(=C/c2c[nH]c3ccc([N+](=O)[O-])cc23)S1 [Example 199, 5-(5-Nitro-1H-indol-3-ylmethylene)thiazolidine-2,4-dione] |
